Source: patent US5721265A, “Fluorinated 2-nitroimidazole analogs for detecting hypoxic tumor cells” (priority 1995, dated 1998)
≈ marks a conversion by molar mass, not a printed value. Where “and” joins values, the source holds several entries; their conditions need not be identical. Equal values may be shown once. Entries after “also recorded” stand apart in the source; their conditions may differ. Read-outs that look alike come from different tables or passages of the source.

Key:
log P (lipophilicity) = format: physicochemical
[1] = reductive metabolism of SR 4554 by mouse liver microsomes under hypoxia (HPLC); format: in vitro ADME
Procedure: (§1) The chromatographic system consisted of a WISP Model 712 autosampler (Waters Chromatography Ltd.), Model 660 gradient controller with a quaternary HPLC pump, a Model 991 photodiode array detector and a NEC Powermate SX/16 personal computer running Waters 991 photodiode array software. A reversed phase chromatographic separation was performed on a 10 μm μ Bondapak C18 (3.9×300 mm) analytical column (Millipore) at ambient temperature. Pellicular ODS (Whatman) packed in a 2×6.5 mm stainless steel column (Upchurch Scientific, Inc.) was used as a pre-column. The mobile phase was methanol/H2 O) (15:85). All solvents were filtered through a 0.45 μm Teflon PTFE/polypropylene filter membrane, de-gassed with helium and delivered isocratically at a flow rate of 2 ml/min. The column effluent was monitored by UV-photodiode array detection at 324 nm (UV range=200 to 500 nm). The peak area ratio of analyte to internal standard was used for conversion of the detector response to concentration estimates via the construction of a calibration curve.
(§2) SR 4554 was reduced by mouse liver microsomes as well as purified rat and human cytochrome P450 reductase under hypoxia (100% nitrogen).
The characteristics of reductive metabolism of SR 4554 by mouse liver microsomes (0.5 mg/ml protein) are depicted in FIG. 1. Samples were removed at various time points, extracted with silver nitrate and analyzed by high performance liquid chromatography (HPLC) as described above. […] The cytochrome P450 inhibitor--carbonmonoxide--inhibited the hypoxic metabolism of SR 4554 by 15%.

[2] = tested on: cytochrome P450 reductase; test: reduction by purified rat cytochrome P450 reductase under hypoxia; format: in vitro ADME; conditions: 100% nitrogen
Excerpt: as §2

[3] = tested on: cytochrome P450 reductase; test: reduction by purified human cytochrome P450 reductase under hypoxia; format: in vitro ADME; conditions: 100% nitrogen
Excerpt: as §2

[4] = pharmacokinetics of SR 4554 in EMT-6 tumor-bearing mice (HPLC); format: in vivo, mouse
Procedure: Silver nitrate solution (25 μl; 30% w/v) was added to 250 μl of tissue samples and standards and to 20 μl of internal standard solution (12.5 μg/ml in 0.1M Tris buffer, pH 7.4). Samples were then vortexed and centrifuged (2000×g) for 5 min. The extracted samples 50 μl) were then injected into the HPLC.
as §1
EMT-6 tumor-bearing mice were used in this study. Mice were given a single intraperitoneal or intravenous injection (180 mg/kg body weight) or a single oral dose (p.o. 90 mg/kg) by lavage of SR 4554. Three mice were sacrificed per time point and blood obtained by cardiac puncture. The blood obtained was centrifuged to give plasma. Tumors, livers and brain were also obtained at various time points. Samples were extracted with silver nitrate and analyzed by high performance liquid chromatography (HPLC) using the procedures described in Example 4.

[5] = urinary excretion of SR 4554 in non-tumor-bearing female Balb/c mice; format: in vivo, mouse; conditions: urine
[6] = toxicity of SR 4554 in female Balb/c mice; format: in vivo, mouse
Procedure: Toxicity studies of SR 4554 were done in female Balb/c mice. Mice were injected with SR 4554 i.v with 191 mg/kg ([…]) body weight or i.p. with 383 mg/kg ([…]) body weight. Control mice were injected with an equivalent volume of solvent (saline).

RIF-1 tumors = test: retention in RIF-1 tumor-bearing C3H/He mice by 19F magnetic resonance spectroscopy (and HPLC); format: in vivo, mouse
Procedure: (§3) SR 4554 was administered as a single intraperitoneal injection of 180 mg/kg to RIF-1 tumor-bearing female C3 H/He mice and EMT-6 tumor-bearing female Balb/c mice. In some experiments, hydralazine ([…] i.v.) was administered 1 h prior to the administration of SR 4554. Magnetic resonance spectroscopy (MRS) was conducted on a 4.7 Tesla (SISCO) nuclear magnetic resonance (NMR) spectrometer using a double-tuned (^19 F/^2 H) circuit at 45 min and 6 hr post injection of SR 4554. Drug concentrations were obtained using a modification of the method of Thulborn et al. (1983) J. Magn. Reson. 55:357-371. Specifically, the ^19 F signal intensity was related to the natural abundance ^2 H signal from tissue water. Calibrations involved the use of a reference bulb containing 5-fluorotryptophan (5-FTP) and acetic acid-d (AcOH-d). Tumors were excised immediately after MRS examination and original drug levels determined by high performance liquid chromatography (HPLC), as described in Example 6.
It is assumed that the retention of high concentrations of ^19 F at 6 hr, despite the much lower (20 fold) concentration of original drug detected by HPLC at […], represent one or more nitro-reduced metabolites.
The retention of drug signal in RIF-1 tumors is plotted as a function of tumor weight in FIG. 7. Tumor ^19 F signal levels at 6 hrs and 45 min were calculated in μmol/g tumor. The retention of ^19 F at 6 hrs relative to 45 min in the same tumors was compared to corresponding tumor weights in grams. In this tumor model (a low hypoxic fraction tumor) the relative retention (6 hrs/45 min) correlated with tumor weight (corr. coeff.=0.83).

EMT-6 tumors = test: retention in EMT-6 tumor-bearing Balb/c mice by 19F magnetic resonance spectroscopy; format: in vivo, mouse
Procedure: as §3
RIF-1 and EMT-6 tumors have a low and a high radiobiological hypoxic fraction, respectively. Moulder et al. (1984), supra.

[7] = tested on: murine and human tumor xenografts; test: retention of 19F signal in murine and human tumor xenografts by MRS; format: in vivo, mouse; human
Procedure: In addition to the above experiment, more extensive in vivo experiments have been performed. In order to assess the oxygenation status of various murine and human tumor xenografts, the retention of ^19 F signal as measured by MRS was evaluated following SR 4554 administration. The data shown in FIG. 8 represent the mean ±SD of the ratios of ^19 F retention (μmol/g) at 6 hrs relative to 45 mins. RIF1 (fibrosarcoma), EMT6 ([…]) and KHT (adenocarcinoma) are murine tumors whereas HT29 (colon carcinoma), BB (colon carcinoma), WIL (non-small cell lung carcinoma) and HN5 (squamous cell carcinoma of the head and neck) are human tumor xenografts. Importantly, the data illustrates the varying degree of retention of SR 4554 by the different tumors.

C3H mouse mammary tumor = test: influence of carbogen breathing on SR 4554 retention within the C3H mouse mammary tumor; format: in vivo
Excerpt: Table 4 presents the influence of high levels of oxygen (carbogen breathing) on SR 4554 retention within the C3H mouse mammary tumor.

C3H-mammary tumor = test: SR 4554 retention and oxygen electrode measurement in C3H-mammary tumor; format: in vivo, mouse
Procedure: (§4) Tumor oxygenation measurements were performed 3 hours after SR 4554 administration using a polarographic needle oxygen electrode.

SCCVII tumor = test: SR 4554 retention and oxygen electrode measurement in SCCVII tumor; format: in vivo
Procedure: as §4

[8] = solubility in 0.9% saline solution
[9] = tested on: mouse tumors (EMT-6, KHT, RIF-1); conditions: cited from earlier work; for 19F signal intensity by tumor type: EMT-6, KHT vs RIF-1; for retention in mouse tumors (19F MRS): in vivo
tumors = conditions: cited from earlier work
[10] = cited from earlier work
[11] = in vivo; cited from earlier work
[12] = literature compounds; cited from earlier work
[13] = per amount injected 3.34-3.55 mg

## O=C(Cn1ccnc1[N+](=O)[O-])NCC(O)C(F)(F)F (racemic) [SR 4554]
Log P (lipophilicity)
  logP: -0.2
[1]; TlCl3.4H2O, 0.2 mg/ml
  inhibition of reduction by cytochrome P450 reductase inhibitor: completely inhibited
[1]; in air
  inhibition of reduction by air: completely inhibited
[1]; mouse liver microsomes
  Vmax of microsomal metabolism: 16.84 nmol/min/mg
[1]; mouse liver microsomes 0.5 mg/ml protein
  other nitro-containing species upon metabolism: No other nitro-containing species were observed
[1]; mouse liver microsomes, 100% nitrogen
  reduced under hypoxia: reduced; also recorded: metabolized under hypoxic conditions
[1]; mouse liver microsomes, read-out: Km of microsomal metabolism
  Km: 0.65 mM
[1]; without NADPH
  inhibition of reduction in the absence of cofactor (NADPH): completely inhibited
[2]
  reduced under hypoxia: reduced
[3]
  reduced under hypoxia: reduced
[4]; i.p.
  brain/plasma ratio over time: generally remained low throughout the observation period
  liver/plasma ratio over time: decreased very rapidly
  time of peak tumor/plasma ratio: about 90 min
[4]; i.p., 240 min
  liver/plasma and brain/plasma ratios at 240 min: about the same
[4]; i.v. 180 mg/kg
  bioavailability ratio relative to i.v., i.v.: 100%
[4]; limit of detection=25 ng/ml, postinjection
  detectable in plasma until: ≥ 6 h
[4]; mice
  brain levels and brain/plasma ratio: generally low
[4]; mouse, in vivo
  accumulation in the brain: does not accumulate to any appreciable degree in the brain
[4]; mouse, in vivo, ip, i.p. 180 mg/kg, read-out: bioavailability ratio relative to i.v., i.p.
  bioavailability: 100%
[4]; mouse, in vivo, po, p.o. 90 mg/kg, read-out: bioavailability ratio relative to i.v., p.o.
  bioavailability: 95.5%
[4]; mouse, plasma, read-out: Cmax, plasma
  Cmax: 145 µg/mL
[4]; mouse, plasma, read-out: half life, t1/2, plasma
  half-life: 50.8 ± 1.6 min
[4]; mouse, plasma, read-out: tmax, plasma (converted)
  Tmax: 30 min
[4]; mouse, tissue, limit of detection, 6 hours, read-out: tissue levels of drug at 6 hours
  concentration at 6 h: < 100 ng/g
[4]; mouse, tumor, read-out: Cmax, tumor
  Cmax: 52000 ng/g
[4]; mouse, tumor, read-out: half life, t1/2, tumor
  half-life: 51.5 ± 4.4 min
[4]; mouse, tumor, read-out: tmax, tumor (converted)
  Tmax: 45 min
[5]; mouse, read-out: detected as unchanged parent compound in urine
  dose excreted: ≤ 66%
[5]; [13]
  Amount of Drug Excreted: 2.62 mg and 2.39 mg and 1.83 mg
  Fraction of Dose Excreted: 73.80% and 71.56% and 52.59%
[6]; i.v. 191 mg/kg or i.p. 383 mg/kg
  behavioral changes or deaths: no behavioral changes or deaths were observed
[6]; mouse, in vivo
  bodyweight changes between treated and control mice: No differences were observed
RIF-1 tumors; RIF-1 + hydralazine 1 h prior, n = 6
  Retention (mean ± S.D.), + hydralazine: 1.27 ± 0.50
RIF-1 tumors; RIF-1, 180 mg/kg i.p., n = 13, tumor weight 0.5 to 2.7 g
  Retention (mean ± S.D.): 0.53 ± 0.27
RIF-1 tumors; RIF-1 mice
  clearance from the brain and retention in tumors: rapidly cleared from the brain but selectively retained in tumors
RIF-1 tumors; RIF-1 tumor, original drug, 7 hrs, HPLC
  tumor drug level, 7 hrs (HPLC): 0.009 μmol/g tissue and 0.008 μmol/g tissue and 0.007 μmol/g tissue
RIF-1 tumors; RIF-1 tumors
  concentration of original drug (HPLC, 7 hrs) lower than 19F (MRS, 6 hr): 20 fold
RIF-1 tumors; hydralazine 1 h prior
  increase in retention on hydralazine pre-treatment: two-fold increase
EMT-6 tumors; EMT-6, 180 mg/kg i.p., n = 12
  Retention (mean ± S.D.): 1.04 ± 0.66
EMT-6 tumors; MRS
  retention in EMT-6 compared with RIF-1 tumors: greater in EMT-6 tumors than in RIF-1 tumors
[7]; HT29, BB, WIL, HN5 vs RIF1, EMT6, KHT
  retention in human tumor xenografts vs murine tumors (6 hrs relative to 45 mins): Apart from the WIL tumor, the retention of the drug in human tumor xenografts were lower than for the murine tumors
[7]; murine and human tumors
  trend of retention with hypoxic fraction: tumors which are known to have a greater hypoxic fraction retained more SR 4554
C3H mouse mammary tumor; Air (20% O2)
  Retention, air breathing: 0.62 +/- 0.17
C3H mouse mammary tumor; Carbogen (95% O2)
  Retention, carbogen breathing: 0.11 +/- 0.05
C3H mouse mammary tumor; carbogen vs air
  reduction in retention, carbogen vs air: significant (P<0.01) reduction
C3H-mammary tumor
  SR 4554 Retention (mean ± SD): 0.79 +/- 0.36
SCCVII tumor
  SR 4554 Retention (mean ± SD): 0.57 +/- 0.14
[8]
  solubility: 23 mM (≈ 6.49 mg/mL)

## O=C(Cn1ccnc1[N+](=O)[O-])N(CCO)CC(O)C(F)(F)F (stereo not shown) [SR 4557, N-(2-hydroxyethyl)-N-(2-hydroxy-3,3,3-trifluoropropyl)-2-(2-nitro 1H-imidazol-1-yl)acetamide]
Log P (lipophilicity)
  logP: -0.36
[8]
  solubility: 628 mM (≈ 205 mg/mL)

## O=[N+]([O-])c1nccn1CC(O)COC(C(F)(F)F)C(F)(F)F (stereo not shown) [CCI-103F, hexafluoromisonidazole]
[9]
  19F signal intensity by tumor type: higher in EMT-6 and KHT than RIF-1 tumors
  retention in mouse tumors (19F MRS): selectively retained in mouse tumors
tumors; immunohistochemistry
  staining for bound drug in tumors: some staining for bound drug at the periphery of necrotic zones
tumors; intraperitoneal, 24 hours
  19F tumor signal detectable after twenty-four hours: 4 of 10
[10]
  octanol/water partition coefficient: 20
[11]
  neurotoxic side effects: neurotoxic side effects

## O=[N+]([O-])c1nccn1CC(O)CF (stereo not shown) [Ro 07-0741]
[9]
  19F signal intensity by tumor type: higher in EMT-6 and KHT than RIF-1 tumors
  retention in mouse tumors (19F MRS): selectively retained in mouse tumors
[10]
  octanol/water partition coefficient: 0.41
[11]
  neurotoxic side effects: neurotoxic side effects

## COCC(O)Cn1ccnc1[N+](=O)[O-] (stereo not shown) [Misonidazole]
[12]
  log P: -0.32

## O=C(Cn1ccnc1[N+](=O)[O-])NCCO [Etanidazole]
[12]
  log P: -1.28
[11]
  neurotoxicity relative to Misonidazole: less neurotoxic than Misonidazole
[8]
  solubility: 551 mM (≈ 118 mg/mL)
